Assay results: patent US6372736B1, “Heterocyclic compounds as inhibitors of rotamase enzymes” (Pfizer INC, priority 1999, dated 2002)
Counter-ions that a name gives are not always drawn.

These compounds were tested against human recombinant FKBP-12 (Homo sapiens, UniProt P62942) (assay: coupled colorimetric PPIase (rotamase) assay, FKBP-12). Details: succinyl-AFPF-pNA substrate, chymotrypsin-coupled, 10° C., pH 8.0; read-out: IC50 for inhibition of the FKBP-12 enzyme.
Format: biochemical
From the text: The affinity of the compounds of the formula (I) for FKBP-12 can be determined in vitro in a coupled calorimetric PPlase assay using similar procedures to published methods (e.g. see Kofron, J. L., et al., Biochemistry, 1991,30, 6127-6134, Zarnt, T., et al., Biochem. J. 1995, 305, 159-164, Holt, D. A., et al., J. Am. Chem. Soc., 1993, 115, 9925-9938). In these methods, the cis-trans isomerisation of a hydrophobic amino acid-proline bond in a tetrapeptide substrate (e.g. the phenylalanine-proline bond in N-succinyl-ala-phe-pro-phe-p-nitroanilide [succinyl-AFPF-pNA]) can be determined by monitoring cleavage of pNA from the transPro-containing peptide by an excess of chymotrypsin.
The IC50 (the concentration of the compound of the formula (I) producing 50% inhibition) values were determined using the following assay methodology. Assay buffer (2.175 ml) (50 mM 4-(2-hydroxyethyl)-1-piperazineethanesulphonic acid (HEPES), 100 mM NaCl, 1 mM dithiothreitol (DTT), pH 8.0) is equilibrated to 10° C. in a cuvette. 12.5 μl of a solution of the present compound in DMSO, 250 μl of a 60 mg/ml solution of α-chymotrypsin in 1 mM aqueous hydrochloric acid and then 50 μl of a solution of human recombinant FKBP-12 (4.5 μM) in assay buffer are added and mixed. The reaction is initiated by addition of 12.5 μl of a solution of 20 mM succinyl-AFPF-pNA in DMSO. The absorbance at 390 nm is monitored for one minute collecting data every 0.25 second. Data are fitted with a first order rate equation with offset and the rate constant obtained corrected for the rate of uncatalysed isomerisation of the substrate. The rate constant determined at different inhibitor concentrations (10 nM to 100 μM) is expressed as % inhibition of the control rate constant. The IC50 is estimated using a non-linear least squares curve fitting routine of the sigmoidal dose response data.

Sequence of human recombinant FKBP-12 (P62942 whole entry): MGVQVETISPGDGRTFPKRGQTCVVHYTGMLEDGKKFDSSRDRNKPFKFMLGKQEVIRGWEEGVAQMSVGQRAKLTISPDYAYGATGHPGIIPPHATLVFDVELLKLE

Row | Structure (SMILES) | IC50 [µM]
1 | O=C(N[C@H]1CCN(Cc2ccccc2)C1)[C@@H]1CCCCN1c1nc2ccccc2o1 [Example 2, (2S)-1-(1,3-Benzoxazol-2-yl)-N^2-[(3S)-1-benzylpyrrolidin-3-yl]-2-piperidinecarboxamide] | < 1.2
2 | O=C(N[C@H]1CCN(Cc2ccccn2)C1)[C@@H]1CCCCN1c1nc2ccccc2o1 [Example 6, (2S)-1-(1,3-Benzoxazol-2-yl)-N^2-[(3S)-1-(2-pyridinylmethyl)pyrrolidin-3-yl]-2-piperidinecarboxamide] | < 1.2
3 | O=C(N[C@H]1CCN(Cc2cccnc2)C1)[C@@H]1CCCCN1c1nc2ccccc2o1 [Example 7, (2S)-1-(1,3-Benzoxazol-2-yl)-N^2-[(3S)-1-(3-pyridinylmethyl)pyrrolidin-3-yl]-2-piperidinecarboxamide] | < 1.2
4 | O=C(N[C@H]1CCN(Cc2ccncc2)C1)[C@@H]1CCCCN1c1nc2ccccc2o1 [Example 8, (2S)-1-(1,3-Benzoxazol-2-yl)-N^2-[(3S)-1-(4-pyridinylmethyl)pyrrolidin-3-yl]-2-piperidinecarboxamide] | < 1.2
5 | NC(=O)c1cccc(CN2CC[C@H](NC(=O)[C@@H]3CCCCN3c3nc4ccccc4o3)C2)c1 [Example 13a, (2S)-N^2-1-{(3S)-1-[3-(Aminocarbonyl)phenylmethyl]pyrrolidin-3-yl}-1-(1,3-benzoxazol-2-yl)-2-piperidinecarboxamide] | < 1.2
6 | O=C(N[C@H]1CCN(Cc2ccccc2)C1)[C@@H]1CCCCN1c1nc2ccc(Br)cc2o1 [Example 15, (2S)-N^2-[(3S)-1-Benzylpyrrolidin-3-yl]-1-(6-bromo-1,3-benzoxazol-2-yl)-2-piperidinecarboxamide] | < 1.2
7 | O=C(N[C@H]1CCN(Cc2cc3ccccc3nc2Cl)C1)[C@@H]1CCCCN1c1nc2ccccc2o1 [Example 16] | < 1.2
8 | O=C(N[C@H]1CCN(Cc2ccnc3ccccc23)C1)[C@@H]1CCCCN1c1nc2ccccc2o1 [Example 17] | < 1.2
9 | O=C(N[C@H]1CCN(Cc2ccc3ccccc3n2)C1)[C@@H]1CCCCN1c1nc2ccccc2o1 [Example 18] | < 1.2
10 | O=C(N[C@H]1CCN(Cc2cnc3ccccc3c2)C1)[C@@H]1CCCCN1c1nc2ccccc2o1 [Example 19] | < 1.2
11 | CC(c1ccnc2ccccc12)N1CC[C@H](NC(=O)[C@@H]2CCCCN2c2nc3ccccc3o2)C1 (stereo partly shown) [Example 20] | < 1.2
12 | O=C(N[C@H]1CCN(C(=O)c2ccc3ccccc3n2)C1)[C@@H]1CCCCN1c1nc2ccccc2o1 [Example 21, (2S)-N^2-{(3S)-1-[Quinolin-2-ylcarbonyl]pyrrolidin-3-yl}-1-(1,3-benzoxazol-2-yl)-2-piperidinecarboxamide] | < 1.2
13 | O=C(N[C@H]1CCN(C(=O)c2cc(-c3ccccc3)nc3ccccc23)C1)[C@@H]1CCCCN1c1nc2ccccc2o1 [Example 22, (2S)-N^2-{(3S)-1-[2-Phenylquinolin-4-ylcarbonyl]pyrrolidin-3-yl}-1-(1,3-benzoxazol-2-yl)-2-piperidinecarboxamide] | < 1.2
14 | COc1cc(C(=O)N2CC[C@H](NC(=O)[C@@H]3CCCCN3c3nc4ccccc4o3)C2)nc2ccccc12 [Example 23, (2S)-N^2-{(3S)-1-[4-Methoxyquinolin-2-ylcarbonyl]pyrrolidin-3-yl}-1-(1,3-benzoxazol-2-yl)-2-piperidinecarboxamide] | < 1.2
15 | COc1ccc2nc(-c3ccccc3)cc(C(=O)N3CC[C@H](NC(=O)[C@@H]4CCCCN4c4nc5ccccc5o4)C3)c2c1 [Example 24, (2S)-N^2-{(3S)-1-[6-Methoxy-2-phenylquinolin-4-ylcarbonyl]pyrrolidin-3-yl}-1-(1,3-benzoxazol-2-yl)-2-piperidinecarboxamide] | < 1.2
16 | O=C(N[C@H]1CCN(C(=O)c2cc(N3CCCCC3)nc3ccccc23)C1)[C@@H]1CCCCN1c1nc2ccccc2o1 [Example 25, (2S)-N^2-{(3S)-1-[2-Piperidinoquinolin-4-ylcarbonyl]pyrrolidin-3-yl}-1-(1,3-benzoxazol-2-yl)-2-piperidinecarboxamide] | < 1.2
17 | O=C(N[C@H]1CCN(C(=O)c2cc(Cl)nc3ccccc23)C1)[C@@H]1CCCCN1c1nc2ccccc2o1 [Example 26, (2S)-N^2-{(3S)-1-[2-Chloroquinolin-4-ylcarbonyl]pyrrolidin-3-yl}-1-(1,3-benzoxazol-2-yl)-2-piperidinecarboxamide] | < 1.2
18 | O=C(N[C@H]1CCN(C(=O)c2ccc3cn[nH]c3c2)C1)[C@@H]1CCCCN1c1nc2ccccc2o1 [Example 27, (2S)-N^2-{(3S)-1-[1H-benzpyrazol-6-ylcarbonyl]pyrrolidin-3-yl}-1-(1,3-benzoxazol-2-yl)-2-piperidinecarboxamide] | < 1.2
19 | O=C(NC1CCCN(Cc2ccccc2)C1)[C@@H]1CCCCN1c1nc2ccccc2o1 (stereo partly drawn) [Example 30, (2S)-1-(1,3-Benzoxazol-2-yl)-N^2-(1-benzyl-3-piperidinyl)-2-piperidinecarboxamide] | < 1.2
20 | O=C(N[C@H]1CN[C@H](COCc2ccccc2)C1)[C@@H]1CCCCN1c1nc2ccccc2o1 [Example 35, (2S)-1-(1,3-Benzoxazol-2-yl)-N^2-(3R,5S)-5-[(benzyloxy)methyl]pyrrolidin-3-yl-2-piperidinecarboxamide hydrochloride] | < 1.2
21 | O=C(N[C@H]1CCN(Cc2ccccc2)C1)C1CCCCN1c1nc2ccccc2[nH]1 (stereo partly shown) [Example 41] | < 1.2

Each compound was assayed against T1, human recombinant FKBP52 (Homo sapiens, UniProt Q02790) (assay: PPIase (rotamase) assay, FKBP-52). Details: read-out: IC50 for inhibition of the FKBP-52 enzyme.
T1 sequence (Q02790 1-459): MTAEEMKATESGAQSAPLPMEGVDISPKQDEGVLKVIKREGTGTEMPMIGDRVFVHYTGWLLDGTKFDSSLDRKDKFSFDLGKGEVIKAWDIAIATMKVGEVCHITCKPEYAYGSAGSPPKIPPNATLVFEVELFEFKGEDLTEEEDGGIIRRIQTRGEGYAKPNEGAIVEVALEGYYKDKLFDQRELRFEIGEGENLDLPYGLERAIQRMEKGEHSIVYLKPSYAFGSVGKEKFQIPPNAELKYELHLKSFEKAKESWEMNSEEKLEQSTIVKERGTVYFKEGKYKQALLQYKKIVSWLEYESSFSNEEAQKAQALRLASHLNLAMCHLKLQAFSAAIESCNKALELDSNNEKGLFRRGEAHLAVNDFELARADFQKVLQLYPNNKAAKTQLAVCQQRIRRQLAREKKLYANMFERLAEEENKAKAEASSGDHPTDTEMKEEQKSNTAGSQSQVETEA
Format: biochemical
Procedure: Assay buffer (2.175 ml) (50 mM HEPES, 100 mM NaCl, 1 mM DTT, pH 8.0) is equilibrated to 10° C. in a cuvette. 12.5 μl of a solution of the present compound in DMSO, 250 μl of a 60 mg/ml solution of α-chymotrypsin in 1 mM aqueous hydrochloric acid and then 50 μL of a solution of human recombinant FKBP-12 (1.5 μM) in assay buffer are added and mixed. The reaction is initiated by adding 1 2.5 μl of a solution of anhydrous succinyl-ALPF-pNA (100 μM final concentration) in a 400 mM solution of LiCl in trifluoroethanol. The absorbance at 390 nm is monitored for 3 minutes collecting data every 0.5 second. Data are fitted with a first order rate equation with offset and the initial velocity (v) is calculated from the concentration of cis (re leu-pro bond)-succinyl-ALPF-pNA at to and the first order rate constant at different inhibitor concentrations (I). Data in the form vinh/vcontrol v. [I] are fitted with an equation for reversible tight binding inhibition to generate values for Ki,app (see Morrison, J. F., et al, Comments Mol. Cell Biophys., 1985, 2, 347-368). This analysis is used when the Ki,app approaches the concentration of FKBP-12 in the assay (30 nM). […] The same methodology is used to generate Ki,app for FKBP52 with the following modifications: Forty microlitres human recombinant FKBP52 (5.2 μM) is substituted for FKBP12 and 2.185 ml assay buffer are used in the assay. […]

Row | Structure (SMILES) | IC50 [µM]
22 | O=C(N[C@H]1CCN(Cc2ccccc2)C1)[C@@H]1CCCCN1c1nc2ccccc2o1 [Example 2, (2S)-1-(1,3-Benzoxazol-2-yl)-N^2-[(3S)-1-benzylpyrrolidin-3-yl]-2-piperidinecarboxamide] | 2.79
